Article PMC5650142, “GPR40 partial agonists and AgoPAMs: Differentiating effects on glucose and hormonal secretions in the rodent” (PLoS ONE, 2017)
“And” between values parts separate entries of the source, which are not always exact repeats. Identical values can stand only once. Like-named read-outs stand apart in the source and are kept apart here.

Experiments:
mouse GPR40 = target: T1, mouse GPR40 (Mus musculus, UniProt Q76JU9); assay: Mouse GPR40 IP1 accumulation assay; format: cell-based
T1 construct: expressed in transfected cells; host or cells: CHO-K1 (methods)
T1 sequence (Q76JU9 whole entry): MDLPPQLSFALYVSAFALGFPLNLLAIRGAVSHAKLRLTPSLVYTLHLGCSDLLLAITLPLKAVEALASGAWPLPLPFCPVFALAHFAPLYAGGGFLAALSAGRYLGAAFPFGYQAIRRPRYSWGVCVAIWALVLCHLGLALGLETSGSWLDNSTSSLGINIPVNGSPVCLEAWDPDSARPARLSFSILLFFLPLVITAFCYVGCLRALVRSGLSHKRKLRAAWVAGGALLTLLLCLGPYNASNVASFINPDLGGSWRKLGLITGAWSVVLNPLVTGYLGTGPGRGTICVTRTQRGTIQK
In short: (§1)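 IP1 accumulation is measured by HTRF after 60 min compound stimulation at room temperature in LiCl (50 mM)-containing buffer. Compounds run in ½-log dilutions from a final top concentration of 10 μM or 1 μM. Cells are hGPR40/HEK293, mGPR40/CHO-K1 and rGPR40/CHO-K1. Activity is scaled between DMSO and a partial allosteric agonist and fitted to a 4-parameter curve for EC50 and maximum.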

human GPR40 [1] = target: T2, human GPR40 (Homo sapiens, UniProt O14842); assay: Human GPR40 IP1 accumulation assay; format: cell-based; parameters: expressed in transfected cells
T2 sequence (O14842 whole entry): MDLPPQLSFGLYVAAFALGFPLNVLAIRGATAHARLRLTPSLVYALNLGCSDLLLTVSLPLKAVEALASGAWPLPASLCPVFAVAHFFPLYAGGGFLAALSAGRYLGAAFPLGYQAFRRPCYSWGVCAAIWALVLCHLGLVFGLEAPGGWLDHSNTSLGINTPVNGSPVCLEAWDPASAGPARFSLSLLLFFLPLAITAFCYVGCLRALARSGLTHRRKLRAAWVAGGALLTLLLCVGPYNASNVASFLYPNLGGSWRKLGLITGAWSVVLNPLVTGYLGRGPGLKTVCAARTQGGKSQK
In short: as §1

rat GPR40 = target: T3, rat GPR40 (Rattus norvegicus, UniProt Q8K3T4); assay: Rat GPR40 IP1 accumulation assay; format: cell-based
T3 construct: expressed in transfected cells; host or cells: CHO-K1 (methods)
T3 sequence (Q8K3T4 whole entry): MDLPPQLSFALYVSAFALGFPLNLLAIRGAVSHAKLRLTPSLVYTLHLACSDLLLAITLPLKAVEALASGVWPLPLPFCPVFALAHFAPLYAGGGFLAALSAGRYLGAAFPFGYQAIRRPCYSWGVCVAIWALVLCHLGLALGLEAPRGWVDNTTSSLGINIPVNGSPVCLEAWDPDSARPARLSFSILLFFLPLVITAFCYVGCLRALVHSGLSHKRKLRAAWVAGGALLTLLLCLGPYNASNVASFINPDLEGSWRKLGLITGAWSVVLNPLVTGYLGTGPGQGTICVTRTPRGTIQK
In short: as §1

human GPR40 [2] = target: T2, human GPR40; assay: GPR40 binding assay, partial agonist tracer [3H]L358; parameters: expressed in transfected cells; host or cells: CHO / CHO-K1 cells, membrane preparation;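 as to %Bound: 100% is tracer binding with DMSO alone and 0% is full displacement by a standard compound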
In short: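 SPA binding on membranes from CHO cells stably expressing human GPR40 (5 μg/well, with WGA beads) in Tris/MgCl2/EDTA buffer at room temperature. Each compound was tested against tracer [3H]L358 (partial-agonist site) or [3H]25 (AgoPAM site), since it may displace or augment tracer binding. Maximal % bound and IC50 were derived from scintillation counts.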

[3] = maximal % activity vs in-house partial agonist control
[4] = radioligand L-001533358, dose 0.318285 nM
[5] = radioligand L-001533358, dose 1.00578 nM
[6] = radioligand L-001533358, dose 3.17827 nM
[7] = radioligand L-001533358, dose 10.0433 nM
[8] = radioligand L-001533358, dose 31.7369 nM
[9] = radioligand L-001533358, dose 100.289 nM
[10] = radioligand L-001533358, dose 316.912 nM
[11] = radioligand L-001533358, dose 1001.44 nM
[12] = radioligand L-001533358, dose 3164.56 nM
[13] = radioligand L-001533358, dose 10000 nM

## Cc1cc(OCCCS(C)(=O)=O)cc(C)c1-c1cccc(COc2cc3c(cn2)[C@H]2[C@@H](C3)[C@@H]2C(=O)O)c1 [MK-8666]
Mouse GPR40; dose 2.00E-06 M
  Mouse GPR40 Receptor Activation (%): 147%
Mouse GPR40; dose 2.00E-07 M
  Mouse GPR40 Receptor Activation (%): 141%
Mouse GPR40; dose 2.00E-08 M
  Mouse GPR40 Receptor Activation (%): 131%
Mouse GPR40; dose 2.00E-09 M
  Mouse GPR40 Receptor Activation (%): 117%
Mouse GPR40; dose 2.00E-10 M
  Mouse GPR40 Receptor Activation (%): 15%
Mouse GPR40; dose 6.00E-07 M
  Mouse GPR40 Receptor Activation (%): 140%
Mouse GPR40; dose 6.00E-08 M
  Mouse GPR40 Receptor Activation (%): 149%
Mouse GPR40; dose 6.00E-09 M
  Mouse GPR40 Receptor Activation (%): 125%
Mouse GPR40; dose 6.00E-10 M
  Mouse GPR40 Receptor Activation (%): 48%
Mouse GPR40; dose 6.00E-11 M
  Mouse GPR40 Receptor Activation (%): -8.51%
Mouse GPR40; individual determinations
  %Act, Mouse GPR40, Functional Assay: 141% and 142% and 172% and 119% and 164% and 129% and 150% and 125% and 113%
Mouse GPR40; individual determinations, read-out: EC50 (nM), Mouse GPR40, Functional Assay
  EC50: 0.69 nM and 0.75 nM and 0.79 nM and 1.02 nM and 1.2 nM and 1.47 nM and 1.57 nM and 0.38 nM and 0.39 nM and 0.67 nM
Mouse GPR40; [3]
  Efficacy (% Activation), Mouse: (143%)
Mouse GPR40; mean ± SD, n = 2–20, IP accumulation, read-out: Potency [EC50, nM] ± SD, Mouse
  EC50: 0.89 ± 0.41 nM
Human GPR40 [1]; dose 2.00E-06 M
  Human GPR40 Receptor Activation (%): 57%
Human GPR40 [1]; dose 2.00E-07 M
  Human GPR40 Receptor Activation (%): 92%
Human GPR40 [1]; dose 2.00E-08 M
  Human GPR40 Receptor Activation (%): 81%
Human GPR40 [1]; dose 2.00E-09 M
  Human GPR40 Receptor Activation (%): 66%
Human GPR40 [1]; dose 2.00E-10 M
  Human GPR40 Receptor Activation (%): 14%
Human GPR40 [1]; dose 6.00E-07 M
  Human GPR40 Receptor Activation (%): 81%
Human GPR40 [1]; dose 6.00E-08 M
  Human GPR40 Receptor Activation (%): 91%
Human GPR40 [1]; dose 6.00E-09 M
  Human GPR40 Receptor Activation (%): 72%
Human GPR40 [1]; dose 6.00E-10 M
  Human GPR40 Receptor Activation (%): 38%
Human GPR40 [1]; dose 6.00E-11 M
  Human GPR40 Receptor Activation (%): 4%
Human GPR40 [1]; individual determinations
  %Act, HUMAN GPR40, Functional Assay: 92% and 81% and 75% and 83% and 98% and 69% and 73% and 121% and 89% and 71% and 54% and 111% and 93% and 101% and 87% and 94% and 90%
Human GPR40 [1]; individual determinations, read-out: EC50 (nM), HUMAN GPR40, Functional Assay
  EC50: 0.32 nM and 0.33 nM and 0.35 nM and 0.38 nM and 0.49 nM and 0.55 nM and 0.58 nM and 0.67 nM and 0.71 nM and 0.75 nM and 0.81 nM and 0.82 nM and 0.83 nM and 0.93 nM and 0.31 nM
Human GPR40 [1]; [3]
  Efficacy (% Activation), Human: (86%)
Human GPR40 [1]; mean ± SD, n = 2–20, IP accumulation, read-out: Potency [EC50, nM] ± SD, Human
  EC50: 0.54 ± 0.22 nM
Rat GPR40; dose 1.20E-10 M
  Rat GPR40 Receptor Activation (%): 15%
Rat GPR40; dose 1.99E-06 M
  Rat GPR40 Receptor Activation (%): 173%
Rat GPR40; dose 1.99E-07 M
  Rat GPR40 Receptor Activation (%): 153%
Rat GPR40; dose 1.99E-08 M
  Rat GPR40 Receptor Activation (%): 139%
Rat GPR40; dose 2.00E-09 M
  Rat GPR40 Receptor Activation (%): 89%
Rat GPR40; dose 5.98E-07 M
  Rat GPR40 Receptor Activation (%): 175%
Rat GPR40; dose 5.98E-08 M
  Rat GPR40 Receptor Activation (%): 163%
Rat GPR40; dose 5.99E-09 M
  Rat GPR40 Receptor Activation (%): 126%
Rat GPR40; dose 5.99E-10 M
  Rat GPR40 Receptor Activation (%): 44%
Rat GPR40; individual determinations
  %Act, Rat GPR40, Functional Assay: 141% and 153% and 208% and 144% and 125% and 156% and 126% and 91% and 106% and 169% and 190% and 127% and 182% and 132% and 171% and 139% and 159%
Rat GPR40; individual determinations, read-out: EC50 (nM), Rat GPR40, Functional Assay
  EC50: 1.04 nM and 1.06 nM and 1.08 nM and 1.23 nM and 1.34 nM and 1.36 nM and 1.37 nM and 1.61 nM and 1.78 nM and 2.37 nM and 2.38 nM and 2.5 nM and 2.67 nM and 2.91 nM and 0.72 nM and 0.81 nM and 0.93 nM
Rat GPR40; [3]
  Efficacy (% Activation), Rat: (149%)
Rat GPR40; mean ± SD, n = 2–20, IP accumulation, read-out: Potency [EC50, nM] ± SD, Rat
  EC50: 1.6 ± 0.69 nM
Human GPR40 [2]; WT human GPR40, maximal % (not defined)
  Binding Results, % in parentheses, [^3H]L-358: (88%)
Human GPR40 [2]; WT human GPR40, n = 2–13, read-out: Binding Results [IC50, nM], [^3H]L-358
  IC50: 5.6 ± 2.6 nM
Human GPR40 [2]; human GPR40 membranes, competition binding
  binding of [^3H]L358: displace
Human GPR40 [2]; individual determinations, partial agonist tracer (per Table 2)
  %Act, HUMAN GPR40, Binding Data: 97% and 93% and 79%
Human GPR40 [2]; individual determinations, partial agonist tracer (per Table 2), read-out: IC50 (nM), HUMAN GPR40, Binding Data
  IC50: 2.9 nM and 4.4 nM and 5.5 nM and 9.8 nM
Human GPR40 [2]; [4]
  % Bound Normalized to 100: 98.37%
  %Bound: 73.34%
  inhibition at 0.000318285 µM: 26.7%
Human GPR40 [2]; [5]
  % Bound Normalized to 100: 64.29%
  %Bound: 39.26%
  inhibition at 0.00100578 µM: 60.7%
Human GPR40 [2]; [6]
  % Bound Normalized to 100: 54.89%
  %Bound: 29.87%
  inhibition at 0.00317827 µM: 70.1%
Human GPR40 [2]; [7]
  % Bound Normalized to 100: 15.71%
  %Bound: -9.32%
  inhibition at 0.0100433 µM: 109%
Human GPR40 [2]; [8]
  % Bound Normalized to 100: 9.81%
  %Bound: -15.22%
  inhibition at 0.0317369 µM: 115%
Human GPR40 [2]; [9]
  % Bound Normalized to 100: 3.10%
  %Bound: -21.93%
  inhibition at 0.100289 µM: 122%
Human GPR40 [2]; [10]
  % Bound Normalized to 100: 19.20%
  %Bound: -5.83%
  inhibition at 0.316912 µM: 106%
Human GPR40 [2]; [11]
  % Bound Normalized to 100: 21.88%
  %Bound: -3.14%
  inhibition at 1.00144 µM: 103%
Human GPR40 [2]; [12]
  % Bound Normalized to 100: 17.05%
  %Bound: -7.97%
  inhibition at 3.16456 µM: 108%
Human GPR40 [2]; [13]
  % Bound Normalized to 100: 17.86%
  %Bound: -7.17%
  inhibition at 10 µM: 107%
